Patent US5518735A, “Meta-substituted phenylalanine derivatives” (priority 1990, dated 1996)
pKi: −log10 of the molar value. Structures can show the parent of a compound that is named as a salt. Where two headings read alike, the source gives them in different places.

Key:
in vivo = conditions: mouse
thrombin = thrombin (Bos taurus, UniProt P00735); assay: Inhibition of thrombin (dissociation constant Ki); format: biochemical
factor Xa = factor Xa (Bos taurus, UniProt P00743); assay: Inhibition of factor Xa (dissociation constant Ki); format: biochemical
plasmin = molecular target: T1, plasmin (Homo sapiens, UniProt P00747); assay: Inhibition of plasmin (Ki); format: biochemical; conditions: Table 26
T1 construct: trypsin and the related enzymes thrombin, plasmin, factor Xa, tPA

glandular kallikrein = glandular kallikrein (Sus scrofa, UniProt P00752); assay: Inhibition of glandular kallikrein (Ki); format: biochemical; conditions: Table 26; read-out: Ki, Gland. Kallikrein
factor XIIa = molecular target: T2, factor XIIa (Homo sapiens, UniProt P00748); assay: Inhibition of factor XIIa (Ki); format: biochemical; conditions: Table 26
T2 construct: glandular kallikrein, factor XIIa and plasma kallikrein
T2 sequence (P00748 373-615 limits assumed): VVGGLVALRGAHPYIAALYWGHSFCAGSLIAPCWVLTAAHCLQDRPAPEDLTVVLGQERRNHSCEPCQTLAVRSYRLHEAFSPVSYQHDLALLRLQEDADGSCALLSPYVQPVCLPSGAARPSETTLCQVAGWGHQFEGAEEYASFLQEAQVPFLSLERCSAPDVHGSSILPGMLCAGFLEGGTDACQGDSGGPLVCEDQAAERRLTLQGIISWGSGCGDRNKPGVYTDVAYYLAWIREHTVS

plasma kallikrein = molecular target: T3, plasma kallikrein (Homo sapiens, UniProt P03952); assay: Inhibition of plasma kallikrein (Ki); format: biochemical; conditions: Table 26
T3 construct: glandular kallikrein, factor XIIa and plasma kallikrein

tPA = tPA (Homo sapiens, UniProt P00750); assay: Inhibition of tPA (Ki); format: biochemical; conditions: Table 26
[1] = Plasma concentration in rats after subcutaneous administration (HPLC); conditions: rat, s.c.
Procedure: (§1) For the pharmacokinetic characterization, the plasma concentration of selected derivatives was determined in rats after intravenous (i.v.), subcutaneous (s.c.) and peroral (p.o.) application according to the following three-step procedure:
(§2) 1. A physiological NaCl solution of the substance to be tested was submitted to high pressure liquid chromatography (HPLC) in order to determine its characteristic substance-specific retention time with the chosen test conditions.
(§3) 2. The substance to be tested was diluted in vitro in rat plasma. This solution was also submitted to HPLC to see whether the characteristic peak of the substance once again appeared at the substance-specific retention time.
(§4) 3. […] Blood samples were taken at time intervals of 15 minutes, from which plasma samples were prepared by centrifugation; those samples were also submitted to HPLC to see whether the characteristic peak of the substance appeared again at the substance-specific retention time.

[2] = Plasma concentration in rats after intravenous administration (HPLC); conditions: in words, compared with NAPAP
Procedure: as §1, §2, §3, §4

[3] = Plasma concentration in rats after oral administration (HPLC); conditions: rat, oral
Procedure: as §1, §2, §3, §4

[4] = Tables 19-25, read-out: Ki, Factor Xa

Chain of factor Xa (P00743 234-492 limits assumed): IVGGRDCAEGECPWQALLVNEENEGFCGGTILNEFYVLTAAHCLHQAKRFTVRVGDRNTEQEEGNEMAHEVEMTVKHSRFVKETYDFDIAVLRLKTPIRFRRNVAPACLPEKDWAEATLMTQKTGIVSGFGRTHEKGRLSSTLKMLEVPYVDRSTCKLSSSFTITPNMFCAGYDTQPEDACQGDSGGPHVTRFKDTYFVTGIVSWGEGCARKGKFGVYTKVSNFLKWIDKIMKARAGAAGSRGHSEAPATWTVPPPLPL
Chain of factor Xa (P00743 41-180 partner limits assumed): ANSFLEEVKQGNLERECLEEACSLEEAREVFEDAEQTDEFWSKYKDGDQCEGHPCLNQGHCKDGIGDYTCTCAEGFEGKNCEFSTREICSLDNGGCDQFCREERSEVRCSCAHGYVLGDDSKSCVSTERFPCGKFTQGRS
T1 sequence (P00747 581-810 limits assumed): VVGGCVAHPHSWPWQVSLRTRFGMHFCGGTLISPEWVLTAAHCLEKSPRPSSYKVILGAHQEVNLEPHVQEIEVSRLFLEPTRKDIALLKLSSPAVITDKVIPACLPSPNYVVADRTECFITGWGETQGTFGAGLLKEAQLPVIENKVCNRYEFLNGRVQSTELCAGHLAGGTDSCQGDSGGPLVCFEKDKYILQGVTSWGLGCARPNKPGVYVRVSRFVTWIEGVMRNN
T1 sequence (P00747 97-580 partner limits assumed): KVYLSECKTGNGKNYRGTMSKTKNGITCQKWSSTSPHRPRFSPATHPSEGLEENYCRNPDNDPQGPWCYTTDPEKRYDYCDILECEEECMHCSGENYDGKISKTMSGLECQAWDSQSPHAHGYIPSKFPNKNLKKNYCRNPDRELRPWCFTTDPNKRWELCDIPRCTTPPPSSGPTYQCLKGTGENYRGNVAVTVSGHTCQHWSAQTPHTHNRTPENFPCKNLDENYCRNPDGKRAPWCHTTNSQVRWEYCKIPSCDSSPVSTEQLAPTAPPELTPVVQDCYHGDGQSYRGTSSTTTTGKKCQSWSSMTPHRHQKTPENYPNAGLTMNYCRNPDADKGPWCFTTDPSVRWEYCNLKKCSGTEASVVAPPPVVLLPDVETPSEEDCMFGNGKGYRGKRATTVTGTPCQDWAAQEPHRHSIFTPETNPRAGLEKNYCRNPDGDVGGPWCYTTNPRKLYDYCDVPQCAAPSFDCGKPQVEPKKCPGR
T3 sequence (P03952 391-638 limits assumed, species assumed): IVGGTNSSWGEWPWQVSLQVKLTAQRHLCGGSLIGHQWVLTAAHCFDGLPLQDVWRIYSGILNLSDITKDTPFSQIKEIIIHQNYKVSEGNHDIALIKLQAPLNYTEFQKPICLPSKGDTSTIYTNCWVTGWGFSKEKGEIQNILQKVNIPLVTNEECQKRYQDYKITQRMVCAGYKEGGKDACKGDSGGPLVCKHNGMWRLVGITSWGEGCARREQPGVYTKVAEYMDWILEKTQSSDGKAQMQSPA
T3 sequence (P03952 20-390 partner limits assumed, species assumed): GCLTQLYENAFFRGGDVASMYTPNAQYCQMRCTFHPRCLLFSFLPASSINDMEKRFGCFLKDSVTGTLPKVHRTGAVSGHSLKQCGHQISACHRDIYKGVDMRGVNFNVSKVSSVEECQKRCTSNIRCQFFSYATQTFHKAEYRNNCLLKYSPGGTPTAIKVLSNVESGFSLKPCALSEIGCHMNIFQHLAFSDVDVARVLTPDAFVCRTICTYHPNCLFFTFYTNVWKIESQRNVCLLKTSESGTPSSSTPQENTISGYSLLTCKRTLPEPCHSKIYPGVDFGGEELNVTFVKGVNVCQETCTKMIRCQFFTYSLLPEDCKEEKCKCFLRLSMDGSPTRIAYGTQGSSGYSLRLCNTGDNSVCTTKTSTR
Chain of tPA (P00750 36-562): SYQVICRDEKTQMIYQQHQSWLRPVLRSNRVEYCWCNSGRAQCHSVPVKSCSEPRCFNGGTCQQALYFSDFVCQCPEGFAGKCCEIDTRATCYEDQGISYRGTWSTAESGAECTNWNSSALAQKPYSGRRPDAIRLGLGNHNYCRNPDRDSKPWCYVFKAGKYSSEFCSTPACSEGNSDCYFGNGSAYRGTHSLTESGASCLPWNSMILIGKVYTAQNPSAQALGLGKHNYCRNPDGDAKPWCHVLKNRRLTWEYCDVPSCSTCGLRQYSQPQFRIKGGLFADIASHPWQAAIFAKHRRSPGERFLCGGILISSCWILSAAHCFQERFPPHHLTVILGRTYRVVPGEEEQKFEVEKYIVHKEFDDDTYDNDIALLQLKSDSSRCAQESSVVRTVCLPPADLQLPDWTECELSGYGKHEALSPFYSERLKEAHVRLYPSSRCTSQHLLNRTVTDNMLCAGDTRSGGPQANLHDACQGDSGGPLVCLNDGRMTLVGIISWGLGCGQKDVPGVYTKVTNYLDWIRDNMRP
Chain of glandular kallikrein (P00752 8-246): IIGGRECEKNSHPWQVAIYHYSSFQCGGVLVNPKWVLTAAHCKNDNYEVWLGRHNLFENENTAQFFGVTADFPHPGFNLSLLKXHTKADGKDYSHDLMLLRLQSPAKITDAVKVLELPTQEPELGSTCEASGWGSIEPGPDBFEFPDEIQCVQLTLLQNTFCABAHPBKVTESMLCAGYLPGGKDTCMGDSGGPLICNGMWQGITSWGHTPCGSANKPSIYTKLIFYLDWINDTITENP

**Q.** For `N=C(N)Nc1cccc(CC(NS(=O)(=O)c2ccc3ccccc3c2)C(=O)N2CCCCC2C(=O)O)c1` (racemic) [Compound 208, N-α-(2-Naphthylsulfonyl)-3-guanidino-(D,L)-phenylalanine-(D,L)-pipecolic acid hydrochloride], which LD50 at 168 h (in vivo; iv) is on record?
**A.** > 50 mg/kg

**Q.** And the LD50 at 168 h (in vivo; po)?
**A.** > 1000 mg/kg

**Q.** And the pKi (thrombin)?
**A.** 4.54

**Q.** What about the pKi (factor Xa; [4]) of the same compound?
**A.** 4.09

**Q.** Which results are given for `N=C(N)c1cccc(CC(NC(=O)CNS(=O)(=O)c2ccc3ccccc3c2)C(=O)N2CCCCC2C(=O)O)c1` (racemic) [Compound 165]?
**A.** pKi (thrombin): 4.21; pKi (factor Xa; [4]): 4.32

**Q.** With `CC1CCN(C(=O)C(Cc2cccc(C(=N)N)c2)NS(=O)(=O)c2cccc3cccnc23)CC1` (racemic) [Compound 171, N-α-(8-quinolinesulfonyl)-3-amidino-(D,L)-phenylalanine-4-methylpiperidide hydroiodide] as the compound, how does the pKi (plasmin) read?
**A.** 4.00

**Q.** What about the pKi (glandular kallikrein) of the same compound?
**A.** 3.59

**Q.** And the pKi (factor XIIa)?
**A.** 3.11

**Q.** And the pKi (plasma kallikrein)?
**A.** < 3.00

**Q.** And the pKi (thrombin)?
**A.** 6.47

**Q.** What about the pKi (factor Xa; [4]) of the same compound?
**A.** 3.74

**Q.** And the pKi (tPA)?
**A.** < 3.00

**Q.** What does the source list for `NCc1cccc(CC(NS(=O)(=O)c2ccc3ccccc3c2)C(=O)N2CCCCC2C(=O)O)c1` (racemic) [Compound 185, N-α-(2-Naphthylsulfonyl)-3-aminomethyl-(D,L)-phenylalanyl-(D,L)-pipecolic acid]?
**A.** pKi (thrombin): 4.30; pKi (factor Xa; [4]): 3.85

**Q.** For `N=C(N)c1cccc(C[C@H](NS(=O)(=O)c2ccc3ccccc3c2)C(=O)N2CCC[C@H]2C(=O)O)c1` [Nα-2-naphthylsulfonyl-3-amidinophenylalanyl proline], which “blood level after subcutaneous administration” value [1] is on record?
**A.** a relatively high blood level is reached which is maintained in an anticoagulantly effective concentration for a prolonged period of time

**Q.** And the pharmacokinetic properties [2]?
**A.** excellent pharmacokinetic properties

**Q.** And the “detection / concentration in plasma or absorption after oral administration” value [3]?
**A.** absorbed by the intestine

**Q.** And the inhibition of thrombin (thrombin; in words)?
**A.** surprisingly inhibits thrombin

**Q.** What about the “inhibition of factor Xa” value (factor Xa; in words) of the same compound?
**A.** does not selectively inhibit factor Xa

**Q.** What does the source list for `N=C(N)c1cccc(CC(NS(=O)(=O)c2cccc3cccnc23)C(=O)N2CCC(C(=O)O)CC2)c1` (racemic) [Compound 181]?
**A.** pKi (thrombin): 3.90; pKi (factor Xa; [4]): 3.59

**Q.** With `COC(=O)C1CCCCN1C(=O)C(Cc1cccc(C(=N)N)c1)NS(=O)(=O)c1ccc2ccccc2c1` (racemic) [Compound 94] as the compound, how does the pKi (plasmin) read?
**A.** 4.98

**Q.** What about the pKi (glandular kallikrein) of the same compound?
**A.** < 3.00

**Q.** What about the pKi (factor XIIa) of the same compound?
**A.** 3.30

**Q.** And the pKi (plasma kallikrein)?
**A.** 4.46

**Q.** What about the pKi (thrombin) of the same compound?
**A.** 7.15

**Q.** And the pKi (factor Xa; [4])?
**A.** 4.34

**Q.** What about the pKi (tPA) of the same compound?
**A.** 3.66

**Q.** With `CC1CCN(C(=O)C(Cc2cccc(C(=N)NO)c2)NS(=O)(=O)c2ccc3ccccc3c2)CC1` (racemic) [Compound 187, N-α-(2-Naphthylsulfonyl)-3-oxamidino-(D,L)-phenylalanine-4-methylpiperidide hydroiodide] as the compound, how does the pKi (thrombin) read?
**A.** 5.55

**Q.** And the pKi (factor Xa; [4])?
**A.** < 3.00

**Q.** With `N=C(NO)c1cccc(CC(NS(=O)(=O)c2ccc3ccccc3c2)C(=O)N2CCCCC2C(=O)O)c1` (racemic) [Compound 188, N-α-(2-Naphthylsulfonyl)-3-oxamidino-(D,L)-phenylalanyl-(D,L)-pipecolic acid hydroiodide] as the compound, how does the pKi (thrombin) read?
**A.** 3.48

**Q.** What about the pKi (factor Xa; [4]) of the same compound?
**A.** 3.39

**Q.** Which results are given for `N=C(NO)c1cccc(CC(NS(=O)(=O)c2ccc3ccccc3c2)C(=O)N2CCC(C(=O)O)CC2)c1` (racemic) [Compound 189, N-α-(2-Naphthylsulfonyl)-3-oxamidino-(D,L)-phenylalanyl-isonipecotic acid hydroiodide]?
**A.** pKi (thrombin): 3.57; pKi (factor Xa; [4]): 3.17

**Q.** What does the source list for `CN1CCN(C(=O)C(Cc2cccc(C(=N)N)c2)NS(=O)(=O)c2ccc3ccccc3c2)CC1` (racemic) [Compound 35]?
**A.** pKi (plasmin): 4.51; pKi (glandular kallikrein): < 3.00; pKi (factor XIIa): < 3.00; pKi (plasma kallikrein): 4.07; pKi (factor Xa): 4.52; pKi (tPA): 3.37

**Q.** With `Nc1cccc(CC(NS(=O)(=O)c2ccc3ccccc3c2)C(=O)N2CCCCC2C(=O)O)c1` (racemic) [Compound 204] as the compound, how does the pKi (thrombin) read?
**A.** 3.89

**Q.** What about the pKi (factor Xa; [4]) of the same compound?
**A.** 3.35
